Reference: paper PMC11280325, “Design, Synthesis, and Characterization of Novel Thiazolidine-2,4-Dione-Acridine Hybrids as Antitumor Agents” (Molecules, 2024)

Columns and labels:
HCT116 = assay: MTT assay, HCT116; format: cell-based, human; conditions: colorectal adenocarcinoma, 48 h incubation
Method: (§1) The human cancer cell lines HeLa (cervical adenocarcinoma), HCT116 (colorectal adenocarcinoma), A2780 (human ovarian adenocarcinoma), A2780cis (human ovarian adenocarcinoma cisplatin-resistant), Jurkat (acute T-lymphoblastic leukemia), and Hep G2 (hepatocellular carcinoma) were cultured in an RPMI 1640 growth medium (Biosera, Kansas City, MO, USA). The cancer cell lines MDA-MB-231 (triple-negative breast adenocarcinoma), A2058 (human melanoma), U87 (human glioblastoma), PATU 8902 (pancreas adenocarcinoma), and A549 (human lung adenocarcinoma) were cultured in a DMEM medium (Biosera, Kansas City, MO, USA). The media were supplemented with 10% fetal bovine serum (FBS) (Invitrogen, Carlsbad, CA, USA) and 1× HyClone™ Antibiotic/Antimycotic Solution (GE Healthcare, Piscataway, NJ, USA).
(§2) To evaluate the IC50 (half-maximal inhibitory concentration) and confirm the antiproliferative activity of the tested substances, we employed the colorimetric MTT assay (3-(4,5-dimethylthiazol-2-yl)-2,5-diphenyltetrazolium bromide) (Sigma-Aldrich Chemie, Steinheim, Germany). The cell lines were seeded in 96-well plates at a density of 5 × 10^3 to 10 × 10^3 cells per well. After 24 h, the tested substances, dissolved in the cultivation medium, were added to the cells at final concentrations of 5, 10, 20, and 50 µmol/L. The cells were then incubated for 48 h under standard cultivation conditions. Following the incubation period, MTT was added to each well. The MTT was metabolized by the cells into insoluble formazan crystals, which were subsequently dissolved by adding 100 µL of 10% SDS. After another 24 h, the absorbance was measured at a wavelength of 540 nm using the automated Cytation™ 3 Cell Imaging Multi-Mode Reader (Biotek, Winooski, VT, USA). The experiments were performed in at least three independent repetitions. IC50 values were calculated using a nonlinear regression method.

Bj-5ta = assay: MTT assay, BJ-5ta non-cancerous fibroblasts; format: cell-based, human; conditions: Homo sapiens, Fibroblast, 48 h, non-cancerous dermal fibroblasts, 48 h incubation
Method: (§3) The non-cancerous cell line MCF-10A (human epithelial breast cells) was cultured in a DMEM F12 medium supplemented with 10% FBS (Invitrogen, Carlsbad, CA, USA), 1× HyClone™ Antibiotic/Antimycotic Solution (GE Healthcare, Piscataway, NJ, USA), insulin, hEGF, and hydrocortisone. The BJ-5ta cells (human dermal fibroblasts) were cultured in a DMEM-M199 4:1 medium mixture, supplemented with 10% FBS and hygromycin B (0.01 mg/mL). The cells were maintained under standard conditions with an atmosphere containing 5% CO2 at 37 °C. Cell viability, estimated by trypan blue exclusion, was consistently greater than 95% before each experiment.
as §2

Hep G2 = assay: MTT assay, Hep G2; format: cell-based, human; conditions: Homo sapiens, HepG2, 48 h, hepatocellular carcinoma, 48 h incubation
Method: as §1, §2

A2058 = assay: MTT assay, A2058; format: cell-based; conditions: Homo sapiens, A2058, 48 h, human melanoma, 48 h incubation
Method: as §1, §2

HeLa = assay: MTT assay, HeLa; format: cell-based, human; conditions: cervical adenocarcinoma, 48 h incubation
Method: as §1, §2

A549 = assay: MTT assay, A549; format: cell-based, human; conditions: lung adenocarcinoma, 48 h incubation
Method: as §1, §2

A2780 = assay: MTT assay, A2780; format: cell-based, human; conditions: Homo sapiens, A2780, 48 h, ovarian adenocarcinoma, 48 h incubation
Method: as §1, §2

MCF-10A = assay: MTT assay, MCF-10A non-cancerous cells; format: cell-based, human; conditions: non-cancerous epithelial breast cells, 48 h incubation
Method: as §3, §2

PATU = assay: MTT assay, PATU 8902; format: cell-based, human; conditions: pancreas adenocarcinoma, 48 h incubation
Method: as §1, §2

| SMILES | IC50 (HCT116) | IC50 (Bj-5ta) | IC50 (Hep G2) | IC50 (A2058) | IC50 (HeLa; Homo sapiens, HeLa, 48 h) | IC50 (A549) | IC50 (A2780) | IC50 (MCF-10A) | melting point | IC50 (PATU; Homo sapiens, PaTu 8902, 48 h) | IC50 (HCT116; Homo sapiens, HCT-116, 48 h) | IC50 (A549; Homo sapiens, A549, 48 h) | IC50 (HeLa) | IC50 (MCF-10A; Homo sapiens, MCF-10A, 48 h) | IC50 (PATU) |
| --- | --- | --- | --- | --- | --- | --- | --- | --- | --- | --- | --- | --- | --- | --- | --- |
| O=C(COc1ccc(/C=C2\SC(=O)N(Cc3c4ccccc4nc4ccccc34)C2=O)cc1)Nc1ccccc1 [Compound 7a, 2-(4-{[(5Z)-3-[(Acridin-9-yl)methyl]-2,4-dioxo-1,3-thiazolidin-5-ylidene]methyl}phenoxy)-N-phenylacetamide] | 37.6 ± 4.2 µM | > 50 µM | > 50 µM | > 50 µM | 24.3 ± 3.8 µM | > 50 µM | > 50 µM | > 50 µM | 249 to 250 °C | > 50 µM | – | – | – | – | – |
| COc1cc(NC(=O)COc2ccc(/C=C3\SC(=O)N(Cc4c5ccccc5nc5ccccc45)C3=O)cc2)cc(OC)c1 [Compound 7b, 2-(4-{[(5Z)-3-[(Acridin-9-yl)methyl]-2,4-dioxo-1,3-thiazolidin-5-ylidene]methyl}phenoxy)-N-(3,5-dimethoxyphenyl)acetamide] | – | > 50 µM | > 50 µM | > 50 µM | 11.3 ± 2.75 µM | – | > 50 µM | 28.8 ± 2.3 µM | 280 to 282 °C | > 50 µM | 34.5 ± 2.98 µM | 34.6 ± 5.4 µM | – | – | – |
| COc1cc(NC(=O)COc2ccc(/C=C3\SC(=O)N(Cc4c5ccccc5nc5ccccc45)C3=O)cc2)cc(OC)c1OC [Compound 7c, 2-(4-{[(5Z)-3-[(Acridin-9-yl)methyl]-2,4-dioxo-1,3-thiazolidin-5-ylidene]methyl}phenoxy)-N-(3,4,5-trimethoxyphenyl)acetamide] | > 50 µM | > 50 µM | > 50 µM | > 50 µM | – | – | > 50 µM | 14.5 ± 2.5 µM | 248 to 249 °C | > 50 µM | – | > 50 µM | 6.8 ± 2.4 µM | – | – |
| O=C(COc1ccc(/C=C2\SC(=O)N(Cc3c4ccccc4nc4ccccc34)C2=O)cc1)Nc1ccc([N+](=O)[O-])cc1 [Compound 7d, 2-(4-{[(5Z)-3-[(Acridin-9-yl)methyl]-2,4-dioxo-1,3-thiazolidin-5-ylidene]methyl}phenoxy)-N-(4-nitrophenyl)acetamide] | > 50 µM | > 50 µM | > 50 µM | > 50 µM | – | – | > 50 µM | – | 293 to 294 °C | > 50 µM | – | > 50 µM | 20.1 ± 2.95 µM | > 50 µM | – |
| O=C(COc1ccc(/C=C2\SC(=O)N(Cc3c4ccccc4nc4ccccc34)C2=O)cc1)Nc1ccccc1C(F)(F)F [Compound 7e, 2-(4-{[(5Z)-3-[(Acridin-9-yl)methyl]-2,4-dioxo-1,3-thiazolidin-5-ylidene]methyl}phenoxy)-N-[2-(trifluoromethyl)phenyl]acetamide] | 22.3 ± 4.6 µM | > 50 µM | > 50 µM | > 50 µM | – | – | > 50 µM | – | 256 to 257 °C (dec.) | – | – | > 50 µM | > 50 µM | > 50 µM | > 50 µM |
| O=C(COc1ccc(/C=C2\SC(=O)N(Cc3c4ccccc4nc4ccccc34)C2=O)cc1)Nc1cccc(C(F)(F)F)c1 [Compound 7f, 2-(4-{[(5Z)-3-[(Acridin-9-yl)methyl]-2,4-dioxo-1,3-thiazolidin-5-ylidene]methyl}phenoxy)-N-[3-(trifluoromethyl)phenyl]acetamide] | – | 32.6 ± 7.4 µM | 28.1 ± 5.5 µM | > 50 µM | 6.2 ± 1.3 µM | 16.4 ± 1.85 µM | > 50 µM | – | 250 to 251 °C (dec.) | 11.5 ± 2.06 µM | 8.8 ± 3.7 µM | – | – | 9.8 ± 1.9 µM | – |
| O=C(COc1ccc(/C=C2\SC(=O)N(Cc3c4ccccc4nc4ccccc34)C2=O)cc1)Nc1cc(C(F)(F)F)cc(C(F)(F)F)c1 [Compound 7g, 2-(4-{[(5Z)-3-[(Acridin-9-yl)methyl]-2,4-dioxo-1,3-thiazolidin-5-ylidene]methyl}phenoxy)-N-[3,5-bis(trifluoromethyl)phenyl]acetamide] | 18 ± 1.2 µM | > 50 µM | > 50 µM | > 50 µM | 20.9 ± 2.8 µM | – | > 50 µM | > 50 µM | 227 to 228 °C (dec.) | > 50 µM | – | 18.9 ± 3.85 µM | – | – | – |
| O=C(COc1ccc(/C=C2\SC(=O)N(Cc3cccc4cc5ccccc5nc34)C2=O)cc1)Nc1ccccc1 [Compound 8a, 2-(4-{[(5Z)-3-[(Acridin-4-yl)methyl]-2,4-dioxo-1,3-thiazolidin-5-ylidene]methyl}phenoxy)-N-phenylacetamide] | – | > 50 µM | > 50 µM | > 50 µM | – | – | > 50 µM | – | 258 to 259 °C (dec.) | > 50 µM | 26.9 ± 1.85 µM | > 50 µM | 21.1 ± 7.2 µM | > 50 µM | – |
| COc1cc(NC(=O)COc2ccc(/C=C3\SC(=O)N(Cc4cccc5cc6ccccc6nc45)C3=O)cc2)cc(OC)c1 [Compound 8b, 2-(4-{[(5Z)-3-[(Acridin-4-yl)methyl]-2,4-dioxo-1,3-thiazolidin-5-ylidene]methyl}phenoxy)-N-(3,5-dimethoxyphenyl)acetamide] | – | > 50 µM | > 50 µM | > 50 µM | – | – | > 50 µM | – | 168 to 169 °C (dec.) | > 50 µM | > 50 µM | > 50 µM | 12 ± 2.8 µM | > 50 µM | – |
| COc1cc(NC(=O)COc2ccc(/C=C3\SC(=O)N(Cc4cccc5cc6ccccc6nc45)C3=O)cc2)cc(OC)c1OC [Compound 8c, 2-(4-{[(5Z)-3-[(Acridin-4-yl)methyl]-2,4-dioxo-1,3-thiazolidin-5-ylidene]methyl}phenoxy)-N-(3,4,5-trimethoxyphenyl)acetamide] | – | > 50 µM | > 50 µM | > 50 µM | > 50 µM | – | > 50 µM | – | 193 to 194 °C (dec.) | > 50 µM | > 50 µM | > 50 µM | – | > 50 µM | – |
